# Data published in PMC7377239, “Cardiovascular Effects of Polychlorinated Biphenyls and Their Major Metabolites” (Environmental Health Perspectives, 2020).
# Read-outs that look alike come from different tables or passages of the source.
# Experiments:
# HUVECs = assay: High-content imaging cytotoxicity in HUVECs, 24 h; type: cell-based, human; details: Homo sapiens, HUVEC, 24 h, HUVECs; for viability at 0.01 µM / activity at 0.01 µM / viability at 0.1 µM / activity at 0.1 µM / viability at 1 µM / activity at 1 µM / viability at 10 µM / activity at 10 µM / viability at 100 µM / activity at 100 µM: 0.00 µM = 100.00; for viability at 0.1 µM / activity at 0.1 µM: 0.10 µM; for minimal effective concentration: top concentration 100.00 µM
# Outline: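 Point-of-departure values derive from four-parameter logistic fits of vehicle-normalized imaging phenotypes (Hoechst 33342, MitoTracker Orange, calcein AM). The fits follow 24 h exposure of HUVEC monolayers at 37°C and 5% CO2, with a top tested concentration of 100μM.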
# [1] = system: iCell endothelial cells (human iPSC-derived ECs); assay: High-content imaging cytotoxicity in iCell endothelial cells, 24 h; type: cell-based; details: Homo sapiens, Endothelial cell, iPSC-EC, 24 hr; for viability at 0.1 µM / activity at 0.1 µM: 0.10 µM; for minimal effective concentration: top concentration 100.00 µM
# Outline: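 Human iPSC-derived endothelial cells (passages 1–5) were grown to a fibronectin-coated monolayer, then exposed 24 h at 37 °C with 0.5% DMSO vehicle. Staining was Hoechst 33342, MitoTracker Orange and calcein AM, read by high-content imaging. Point of departure came from 4-parameter logistic fits, with a 1-SD vehicle cutoff and 100 µM as the top concentration.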
# [2] = 24 hr, read-out: huvec.cyto.24hr
# [3] = 24 hr, read-out: huvec.mito.24hr
# [4] = 24 hr, read-out: huvec.mitoint.24hr
# [5] = 24 hr, read-out: huvec.nma.24hr
# [6] = 24 hrs, read-out: huvec.tc.24hrs
# [7] = 0.00 µM control = 100.00, read-out: endo.cyto.24hr
# [8] = 0.00 µM control = 100.00, read-out: endo.mito.24hr
# [9] = 0.00 µM control = 100.00, read-out: endo.mitoint.24hr
# [10] = 0.00 µM control = 100.00, read-out: endo.nma.24hr
# [11] = 0.00 µM control = 100.00, read-out: endo.tc.24hrs
smiles,measurement,setting,value
Oc1ccc(-c2ccc(Cl)cc2)cc1 [4'-OH PCB3],viability at 0.01 µM,HUVECs; [2],86.4%
same,activity at 0.01 µM,HUVECs; [3],85.6%
same,activity at 0.01 µM,HUVECs; [4],96.8%
same,activity at 0.01 µM,HUVECs; [5],96.6%
same,viability at 0.1 µM,HUVECs; [2],96.6%
same,activity at 0.1 µM,HUVECs; [3],95.3%
same,activity at 0.1 µM,HUVECs; [4],115%
same,activity at 0.1 µM,HUVECs; [5],97.7%
same,viability at 1 µM,HUVECs; [2],97.8%
same,activity at 1 µM,HUVECs; [3],97.4%
same,activity at 1 µM,HUVECs; [4],107%
same,activity at 1 µM,HUVECs; [5],102%
same,viability at 10 µM,HUVECs; [2],92.7%
same,activity at 10 µM,HUVECs; [3],86.8%
same,activity at 10 µM,HUVECs; [4],95.9%
same,activity at 10 µM,HUVECs; [5],92.6%
same,viability at 100 µM,HUVECs; [2],73.5%
same,activity at 100 µM,HUVECs; [3],36.5%
same,activity at 100 µM,HUVECs; [4],11.1%
same,activity at 100 µM,HUVECs; [5],80.7%
same,minimal effective concentration,"HUVECs; 24 hr, read-out: huvec.cyto.24hr POD",7.01 µM
same,minimal effective concentration,"HUVECs; 24 hr, read-out: huvec.mito.24hr POD",3.9 µM
same,minimal effective concentration,"HUVECs; 24 hr, read-out: huvec.mitoint.24hr POD",11.2 µM
same,minimal effective concentration,"HUVECs; 24 hr, read-out: huvec.nma.24hr POD",6.91 µM
same,viability at 0.01 µM,HUVECs; [6],86.4%
same,viability at 0.1 µM,HUVECs; [6],96.6%
same,viability at 1 µM,HUVECs; [6],97.8%
same,viability at 10 µM,HUVECs; [6],93.3%
same,viability at 100 µM,HUVECs; [6],77.9%
same,minimal effective concentration,"HUVECs; 24 hrs, read-out: huvec.tc.24hrs POD",7.01 µM
same,viability at 0.01 µM,[1]; [7],96.3%
same,activity at 0.01 µM,[1]; [8],96.6%
same,activity at 0.01 µM,[1]; [9],113%
same,activity at 0.01 µM,[1]; [10],100%
same,viability at 0.01 µM,[1]; [11],96.3%
same,viability at 0.1 µM,[1]; [7],95%
same,activity at 0.1 µM,[1]; [8],95.4%
same,activity at 0.1 µM,[1]; [9],105%
same,activity at 0.1 µM,[1]; [10],98.9%
same,viability at 0.1 µM,[1]; [11],95%
same,viability at 1 µM,[1]; [7],99.8%
same,activity at 1 µM,[1]; [8],99.9%
same,activity at 1 µM,[1]; [9],108%
same,activity at 1 µM,[1]; [10],97.4%
same,viability at 1 µM,[1]; [11],99.8%
same,viability at 10 µM,[1]; [7],104%
same,activity at 10 µM,[1]; [8],105%
same,activity at 10 µM,[1]; [9],119%
same,activity at 10 µM,[1]; [10],96%
same,viability at 10 µM,[1]; [11],104%
same,viability at 100 µM,[1]; [7],39.7%
same,activity at 100 µM,[1]; [8],40.3%
same,activity at 100 µM,[1]; [9],91.2%
same,activity at 100 µM,[1]; [10],101%
same,viability at 100 µM,[1]; [11],69.7%
same,minimal effective concentration,[1]; read-out: endo.cyto.24hr POD,41.1 µM
same,minimal effective concentration,[1]; read-out: endo.mito.24hr POD,41.1 µM
same,minimal effective concentration,[1]; read-out: endo.mitoint.24hr POD,100 µM
same,minimal effective concentration,[1]; read-out: endo.nma.24hr POD,100 µM
same,minimal effective concentration,[1]; read-out: endo.tc.24hrs POD,52 µM
